According to patent US20220226348A1, “METHOD AND COMPOSITION FOR TREATMENT OF SKIN DISEASES ASSOCIATED WITH ACCELERATED CORNEODESMOSOMES DEGRADATION OR WEAKER CELL-CELL ADHESION” (ICHILOV TECH LTD, priority 2019, published 2022):

Columns and labels:
corneodesmosin = experiment: Corneodesmosin protein expression by immunoblotting, normalized to β-actin; format: cell-based; conditions: human primary keratinocytes, immunoblot
Excerpt: Using a high throughput screening of small molecule libraries, utilizing green fluorescent protein (GFP) base reporter system and western blot analysis for validation of the results, it has now been found, in accordance with the present invention, that betulinic acid (which is already used as topical treatment on human skin, and capable of penetrating into the skin and be active in the epidermis while showing excellent safty profile) is capable of boosting corneodesmosin biosynthesis, and when administered to keratinocytes, it increases corneodesmosin expression by more than 3-fold (FIGS. 1-2), and may thus be used as an inducer of corneodesmosin expression in patients suffering from skin diseases or disorders associated with accelerated corneodesmosomes degradation and/or weaker cell-cell adhesion.
Corneodesmosin protein levels were quantified and normalized to β-actin protein levels and presented as corneodesmosin fold expression relative to normal keratinocytes treated with DMSO. […] The other compounds shown in the figure are 5-aminolevulinic acid hydrochloride (5-ALA; #1), piperlongumine (#2), thiostrepton (#3), obatoclax mesylate (GX15-070; #5), BI 2536 (CAS No.: 755038-02-9; #6), PHA-665752 (CAS No.: 477575-56-7 (anhydrous; #7), YH239-EE (CAS No.: 1364488-67-4; #8), PF-562271 (CAS No.: 717907-75-0; #9), and BI-D1870 (CAS No.: 501437-28-1; #10).

CDSN = CDSN expression at the mRNA level in keratinocytes; format: cell-based

SMILES: C=C(C)[C@@H]1CC[C@]2(C(=O)O)CC[C@]3(C)[C@H](CC[C@@H]4[C@@]5(C)CC[C@H](O)C(C)(C)[C@@H]5CC[C@]43C)[C@@H]12 [betulinic acid]
- corneodesmosin fold expression relative to normal keratinocytes treated with DMSO (corneodesmosin): more than 3 fold
- CDSN expression at the mRNA level relative to DMSO-treated normal keratinocytes (CDSN): 2 fold
